Patent publication US8937188B2, “Process for the preparation of lasofoxifene tartrate” (Glenmark Generics Ltd., priority 2009, dated 2015)

Question: For COc1ccc2c(c1)CCC=C2c1ccc(OCCN2CCCC2)cc1 [Example 1, 1-{2-[4-(6-Methoxy-3,4-dihydronaphthalene-1-yl)phenoxy]ethyl}pyrrolidine], which melting point is on record?
Answer: 71 to 75 °C
